Measurements from patent US20230192772A1, “ANTIMICROBIAL PEPTIDES AND USES THEREOF” (SORBONNE UNIVERSITE, priority 2016, published 2023).
Ends that are not written are not given here.

Assays:
Mouse red blood cells = assay: Haemolytic activity; assay type: cell-based; conditions: results not shown
Protocol: Mouse or donor blood is washed three times in 10 volumes of PBS at 4° C. by centrifugation at 800 g for 10 minutes. The blood sediment is finally diluted to 4% (v/v) in PBS buffer. The test was carried out as follows: either 10 µM, or 50 µM of peptide was added to 100 µL of red blood cell suspension.
After 1h of incubation at 37° C. followed by centrifugation (800 g, 15 min), the absorbance of the supernatant was measured at 550 nm.
The negative control for this test (0% haemolysis) contains 5 µL of PBS buffer instead of the solution containing the peptide and the positive control (100% haemolysis) contains 5 µL of 1% Triton X100 instead of the solution containing the peptide.
The haemolytic activity of the antimicrobial peptides was measured as per the protocol described in part 3.1 of Example 3.

[1] = system: Pseudomonas aeruginosa ATCC 9027; assay: MIC/MBC, growth inhibition in liquid medium (Example 2); assay type: cell-based; conditions: Table 2
Source text: (§1) Escherichia coli (ATCC 8739, ATCC ML35p and P7 BLSE), Pseudomonas aeruginosa (ATCC 9027 and ATCC 27853), Klebsiella oxytoca (CIP 7932), Klebsiella pneumoniae (CIP 52.211), Salmonella enterica (CIP 8297), Yersinia ruckeri (ATCC 29473), Vibrio parahemolyticus (IFREMER 01 01/252), Staphylococcus aureus (ATCC 6538, ST 1065 and MRSA), Staphylococcus epidermidis (BM 3302), Listeria monocytogenes (SOR 100), Enterococcus faecalis (CIP A186, CIP 103015)), Kocuria rhizophila (ATCC 9341), Lactococcus garviae (ATCC 43921), Bacillus subtilis (CIP 52.65).
(§2) For each strain, a 5 ml pre-culture in LB medium is prepared by inoculating a colony of the bacterial strain of interest. The pre-culture is incubated at 37° C. under stirring overnight. The culture is subcultured (30 µL) in 5 mL. The culture concentration is evaluated by measuring the optical density at 620 nm. The concentration is adjusted by dilution so as to obtain a suspension with an OD of 0.05 at 620 nm.
(§3) The MIC is determined using a growth inhibition test in liquid medium. The MIC is defined as being the lowest peptide concentration capable of inhibiting the bacterial strain tested, after incubation for 18 h at 37° C. The test was carried out in a sterile microtitration plate containing 96 wells. A series of increasing concentrations of each peptide (0.2 to 100 µM) was prepared beforehand in sterile MilliQ water. In each well, 10 µL of peptide was incubated with 90 µL of bacterial suspension (10^7 cfu/mL) in yeast extract-free LB medium. The microplate was incubated at 37° C. for 18 h. The bacterial growth was evaluated by measuring the OD at 620 nm using a plate reader.
(§4) The negative growth inhibition control was obtained by replacing the solution containing the peptide by sterile MilliQ water. The positive control suitable for completely inhibiting the growth of the bacterial strains was obtained by replacing the solution containing the peptide by 10 µL of formaldehyde.
(§5) The results are interpreted by calculating the percentage of bacterial growth in each well according to the formula:
(§6) %Growth = (OD well - OD of T0)/(OD of T100-OD of T0)*100 where
(§7) • OD of T100 = OD of growth control (bacterial suspension free from sample under test, 100% growth), • OD of T0 = OD of sterility control (culture medium + bacterium + 10 µL formaldehyde, 0% growth) and • OD well = OD of well for which it is sought to calculate the growth percentage (bacterial suspension + peptide under test).
(§8) The MBC is defined as being the minimum peptide concentration leaving no surviving bacteria of the inoculum after incubation at 37° C. for 24 hours. This test consists of smearing the contents of the well wherein the peptide has inhibited bacterial growth on a Petri dish (LB agar), followed by incubation for 24 h at 37° C.

[2] = system: Staphylococcus epidermidis BM 3302; assay: as above; assay type: cell-based; conditions: Table 2
Source text: as §1, §2, §3, §4, §5, §6, §7, §8

[3] = system: Bacillus subtilis CIP 52.65; assay: as above; assay type: cell-based; conditions: Table 2
Source text: as §1, §2, §3, §4, §5, §6, §7, §8

[4] = system: Staphylococcus aureus ATCC 6538; assay: as above; assay type: cell-based; conditions: Table 2
Source text: as §1, §2, §3, §4, §5, §6, §7, §8

Escherichia coli ML35p = assay: as above; assay type: cell-based; conditions: Table 2
Source text: as §1, §2, §3, §4, §5, §6, §7, §8

[5] = system: Klebsiella pneumoniae CIP 5211; assay: as above; assay type: cell-based; conditions: Table 2
Source text: as §1, §2, §3, §4, §5, §6, §7, §8

[6] = system: Escherichia coli ATCC 8739; assay: as above; assay type: cell-based; conditions: Table 2
Source text: as §1, §2, §3, §4, §5, §6, §7, §8

[7] = system: Staphylococcus aureus ST 1065; assay: as above; assay type: cell-based; conditions: Table 2
Source text: as §1, §2, §3, §4, §5, §6, §7, §8

LC50 on red blood cells [8] = assay type: cell-based; conditions: C57BL6; Mouse red blood cells
Protocol: The mouse red blood cells are obtained from C57BL6 mouse bone marrow.
(§9) The peptides are incubated at 37° C., 5% CO2 in the presence of 500,000 red blood cells in RPMI medium at varied concentrations and at varied times. Peptide-free cells are used as the negative control and cells incubated for 5 min at 50° C. or in the presence of DMSO (30%) are used as the positive control. The LC50 is then calculated as being the concentration of DA2N and DA2NEQ peptides inducing the death of 50% of the red blood cells.

[9] = system: psoriatic lesions and angiogenesis of skin; assay: Imiquimod-induced psoriasis model; assay type: in vivo, balb/c mice; conditions: topical, 10 µg; no Imiquimod treatment
Protocol: The DA2N and DA2NEQ peptides were tested in an Imiquimod-induced psoriasis model described by Van der Fits (Van der Fits et al. 2009. Journal of immunology. 182(9):5836-5845) on female balb/c mice, aged 7 to 8 weeks.
31 mg of commercial cream containing 5% Imiquimod (Aldara, 3 M Pharmaceuticals) is applied topically on about 2.5 cm of the previously shaven ventral region of the mice for 6 days. The first psoriatic lesions appear on the 3rd day. The peptides resuspended in the cream are applied topically or intravenously (10 µg) for the first 3 days of Imiquimod treatment. Mice with no Imiquimod treatment and/or with no peptide application were used as controls. On the 6th day, the mice are sacrificed and the skin sampled is analysed by microscopy (skin lesions and angiogenesis).

LC50 on red blood cells [10] = assay type: cell-based; conditions: Human red blood cells
Protocol: The human red blood cells were purified from the whole blood of healthy donors (blood bank, IMSS, Cuernavaca, Mexico).
as §9

| Substance | haemolysis of mouse red blood cells (Mouse red blood cells) | MBC [1] [µM] | MIC [1] [µM] | MBC [2] [µM] | MIC [2] [µM] | MBC [3] [µM] | MIC [3] [µM] | MBC [4] [µM] | MIC [4] [µM] | MBC (Escherichia coli ML35p) [µM] | MIC (Escherichia coli ML35p) [µM] | MIC [5] [µM] | MBC [6] [µM] | MIC [6] [µM] | MBC [7] [µM] | MIC [7] [µM] | CC50 (LC50 on red blood cells [8]) [µM] | angiogenesis of healthy skin [9] | effect on healthy skin [9] | CC50 (LC50 on red blood cells [10]) [µM] |
| --- | --- | --- | --- | --- | --- | --- | --- | --- | --- | --- | --- | --- | --- | --- | --- | --- | --- | --- | --- | --- |
| ALWKTLLKKVGKVAGKAVLNAVTNMANQN-OH [DA2N] | do not induce the haemolysis | 12.5 | 12.5 | 12.5 | 1 | 6.25 | 6.25 | 6.25 | 6.25 | 6.25 | 3.12 | 3.12 | 3.12 | 3.12 | 12.5 | 12.5 | 750 | no effect on the angiogenesis of healthy skin | no effect on healthy skin | 750 |
| ALWKTLLKKVGKVAGKAVLNAVTNMANQNEQ [DA2NEQ, ALWKTLLKKVGKVAGKAVLNAVTNMANQNEQOH] | do not induce the haemolysis | 25 | 12.5 | >100 | >100 | 6.25 | 6.25 | 12.5 | 12.5 | 6.25 | 6.25 | 3.12 | 6.25 | 3.12 | >100 | >100 | 750 | no effect on the angiogenesis of healthy skin | no effect on healthy skin | 750 |
